The test addresses Ae. aegypti NPYLR7 (Aedes aegypti, UniProt U5N1H5). The test can be described thus: In vitro calcium (GCaMP6s) FLIPR assay in HEK293T cells transfected with NPYLR7. It is filed as cell-based. Particulars: for RFU: assay date 1/11/20 plate 1, duplicate wells, listed as FMFR3a. As for the experimental part: The in vitro screening assay was adapted from, and carried out at HD Biosciences (HDB, Shanghai) as follows: HEK293T (Thermo Fisher Scientific) cells were grown in Dulbecco’s modified Eagle medium (DMEM) (high glucose, with glutamine), 10% fetal bovine serum, 1% penicillin–streptomycin (Pen/Strep), seeded in a 75 cm^2 flask, and incubated at 37 °C and 5% CO2. Cells were transiently transfected with 1 μg of each plasmid expressing GCaMP6s (Addgene […]) (Chen et al., 2013), mouse Gqα15 (Addgene #40753) (Offermanns and Simon, 1995) and Ae. aegypti NPYLR7 (Addgene #52392) (Duvall et al. 2019) using Lipofectamine 2000 (Invitrogen) in 4 ml of Opti-MEM (Invitrogen). This mixture was added to a plate after 20 min and incubated for 6–8 h. Cells were then trypsinized, resuspended in phenol-free media, and plated in a 384-well plate (Greiner Bio-One) at a density of 20,000 cells per 40 μl, and incubated overnight (37 °C, 5% CO2). Cells were imaged directly in phenol-free media. Plates were loaded into a Molecular Devices fluorescence imaging plate reader (FLIPR) with an excitation wavelength of 470–495 nm and an emitted wavelength of 515–575 nm. Plates were imaged every second for 5 min. After 30 s of baseline fluorescence recording, 10 μl of the test compound in reading buffer [Hank’s Balanced Salt Solution (Gibco) + 20 mM HEPES (Sigma-Aldrich)] was added. Concentrations tested ranged from 0 to 100 μM. Data were collected in raw fluorescence units (RFU).
Each test plate included replicates of 10 μM FMRFa3 (H‐Ala‐Gly‐Gln‐Gly‐Phe‐Met‐Arg‐Phe‐NH2), an Ae. aegypti neuropeptide agonist of NPYLR7 used to calculate the hundred percent effect (HPE). The zero percent effect (ZPE) control was calculated as a response to buffer alone. The Z′ factor was calculated for each plate by Z^′=1-3σHPE+3σZPE/|μHPE-μZPE| . Plates with Z′ < 0.5 were excluded from analysis. Raw fluorescence units (RFU) were converted to percent effect relative to the average of the ZPE and HPE. Percent effect = (sample luminescence − average ZPE)/(average HPE − average ZPE)×100. […] Each replicate was plotted as percent effect versus log[concentration], and replicates with maximal responses between 20 and 250% were used for EC50 calculations. Relative EC50 was calculated using an [Agonist] versus response–variable slope four-parameter model where Y=Bottom+(X^Hillslope)∗(Top-Bottom)/(X^HillSlope+EC50^HillSlope) . For compounds with multiple replicates, the relative EC50 of each replicate was averaged.

Values joined by “and” are separate entries in the source; they are usually repeats but may differ in a detail not shown here. Equal entries are not always repeated. Where two headings read alike, the source gives them in different places. Where a SMILES comes first, the peptide text is derived from it.

Sequence of Ae. aegypti NPYLR7 (U5N1H5 entry or part of it): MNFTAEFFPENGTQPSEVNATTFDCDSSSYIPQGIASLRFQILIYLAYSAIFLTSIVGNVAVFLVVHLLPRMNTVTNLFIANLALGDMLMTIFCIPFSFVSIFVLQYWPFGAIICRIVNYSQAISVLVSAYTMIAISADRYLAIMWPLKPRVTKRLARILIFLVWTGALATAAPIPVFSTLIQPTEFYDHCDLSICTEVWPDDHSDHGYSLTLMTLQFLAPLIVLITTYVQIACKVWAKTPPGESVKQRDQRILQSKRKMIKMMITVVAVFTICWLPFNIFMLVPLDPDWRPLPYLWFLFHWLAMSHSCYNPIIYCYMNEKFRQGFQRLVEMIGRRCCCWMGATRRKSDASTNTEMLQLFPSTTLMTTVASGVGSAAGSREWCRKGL

Regarding `CSCC[C@H](NC(=O)[C@H](Cc1ccccc1)NC(=O)CNC(=O)[C@H](CCC(N)=O)NC(=O)CNC(=O)[C@H](C)N)C(=O)N[C@@H](CCCNC(=N)N)C(=O)N[C@@H](Cc1ccccc1)C(N)=O` [FMRF3a] (H-AGQGFMRF-NH2), under “0.0017 uM, single replicate, normalised response”, the “response at 0.0017(uM)” value worked out at 2.545. The “response at 0.0051(uM)” value (0.0051 uM, single replicate, normalised response) was -0.01361. Moreover, the EC50 was 2.4 µM and 3.76 µM and 1.51 µM and 8.78 µM and 4.23 µM and 2.6 µM and 8.21 µM and 1.15 µM and 4.22 µM and 4.26 µM (EC50 (uM), EC50 of the individual assay date/plate (assay date)); 4.11 µM (Reported Metric, summary EC50 per compound (mean over assay dates), the unit is taken from the neighbouring EC50 (uM) column).

For the compound `CSCC[C@H](NC(=O)[C@H](Cc1ccccc1)NC(=O)CNC(=O)[C@H](CCC(N)=O)NC(=O)CNC(=O)[C@H](C)N)C(=O)N[C@@H](CCCNC(=N)N)C(=O)N[C@@H](Cc1ccccc1)C(N)=O` [FMRFa3, H‐Ala‐Gly‐Gln‐Gly‐Phe‐Met‐Arg‐Phe‐NH2, reference compound] (H-AGQGFMRF-NH2), the RFU was 65 RFU and 68 RFU (0.00169350878084303uM); 68 RFU and 63 RFU (0.00508052634252909uM); 60 RFU and 54 RFU (0.0152415790275873uM); 68 RFU and 57 RFU (0.0457247370827618uM); 60 RFU and 61 RFU (0.137174211248285uM); 69 RFU and 63 RFU (0.411522633744856uM). Moreover, the RFU was 164 RFU and 112 RFU (1.23456790123457uM); 199 RFU and 204 RFU (3.7037037037037uM); 247 RFU and 275 RFU (11.1111111111111 uM); 320 RFU and 317 RFU (33.333333 uM); 354 RFU and 310 RFU (100 uM).

In the case of `Cc1nc(NC(=N)N)nc2cc(OC(F)(F)F)ccc12` [TDI-012613], the EC50 is 3.38 µM (Figure 1E Summary, third list (n = 39), read-out: Reported Metric (Summary list)); 5.42 µM and 1.34 µM (Figure 1E, EC50 of the single assay date/plate, read-out: EC50); 3.38 µM (Figure 1E, metric reported per compound, repeated on every replicate line, read-out: Reported Metric (EC50)); 3.38 µM (relative EC50, percent effect relative to 10 μM FMRFa3, read-out: EC50). For the same compound, the activation at 11.1111 µM (HEK-293T, compound 11.1111 uM, single replicate well, read-out: response at 11.1111) came to 43.1%. Further, the activation at 33.3333 µM (HEK-293T, compound 33.3333 uM, single replicate well, read-out: response at 33.3333) worked out at 69.7%.

The record behind these values is PMC11212260, “Next-generation neuropeptide Y receptor small-molecule agonists inhibit mosquito-biting behavior” (Parasites & Vectors, 2024).
